Laboratory results published in PubChem BioAssay (NCI).
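Cultured in 96-well plates, cells were exposed to test compound for 48 hours across five concentrations. Here, GI50 denotes the concentration required for 50% inhibition of growth. The concentration for full growth arrest is given as TGI.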

Columns and labels:
Experiment in all cases: inhibition of tumour cell growth, NCI panel, 48 h
786-0 renal = tested on: 786-0 renal
A498 renal = tested on: A498 renal
A549 NSCLC = tested on: A549 NSCLC
ACHN renal = tested on: ACHN renal
BT-549 breast = tested on: BT-549 breast
CAKI-1 renal = tested on: CAKI-1 renal
CCRF-CEM leukemia = tested on: CCRF-CEM leukemia
COLO 205 colon = tested on: COLO 205 colon
DU-145 prostate = tested on: DU-145 prostate
EKVX NSCLC = tested on: EKVX NSCLC
HCC-2998 colon = tested on: HCC-2998 colon
HCT-116 colon = tested on: HCT-116 colon
HCT-15 colon = tested on: HCT-15 colon
HL-60(TB) leukemia = tested on: HL-60(TB) leukemia
HOP-62 NSCLC = tested on: HOP-62 NSCLC
HOP-92 NSCLC = tested on: HOP-92 NSCLC
HS 578T breast = tested on: HS 578T breast
HT29 colon = tested on: HT29 colon
IGROV1 ovarian = tested on: IGROV1 ovarian
K-562 leukemia = tested on: K-562 leukemia
KM12 colon = tested on: KM12 colon
LOX IMVI melanoma = tested on: LOX IMVI melanoma
M14 melanoma = tested on: M14 melanoma
MALME-3M melanoma = tested on: MALME-3M melanoma
MCF7 breast = tested on: MCF7 breast
MDA-MB-231 breast = tested on: MDA-MB-231 breast
MDA-MB-435 = tested on: MDA-MB-435
MOLT-4 leukemia = tested on: MOLT-4 leukemia
NCI-H226 lung = tested on: NCI-H226 lung
NCI-H23 lung = tested on: NCI-H23 lung
NCI-H460 lung = tested on: NCI-H460 lung
NCI-H522 lung = tested on: NCI-H522 lung
NCI/ADR-RES ovarian = tested on: NCI/ADR-RES ovarian
OVCAR-3 ovarian = tested on: OVCAR-3 ovarian
OVCAR-4 ovarian = tested on: OVCAR-4 ovarian
OVCAR-5 ovarian = tested on: OVCAR-5 ovarian
OVCAR-8 ovarian = tested on: OVCAR-8 ovarian
PC-3 prostate = tested on: PC-3 prostate
RPMI-8226 leukemia = tested on: RPMI-8226 leukemia
RXF 393 renal = tested on: RXF 393 renal
SF-268 CNS = tested on: SF-268 CNS
SF-295 CNS = tested on: SF-295 CNS
SF-539 CNS = tested on: SF-539 CNS
SK-MEL-2 melanoma = tested on: SK-MEL-2 melanoma
SK-MEL-28 melanoma = tested on: SK-MEL-28 melanoma
SK-MEL-5 melanoma = tested on: SK-MEL-5 melanoma
SK-OV-3 ovarian = tested on: SK-OV-3 ovarian
SN12C renal = tested on: SN12C renal
SNB-19 CNS = tested on: SNB-19 CNS
SNB-75 CNS = tested on: SNB-75 CNS
SR leukemia = tested on: SR leukemia
SW-620 colon = tested on: SW-620 colon
T-47D breast = tested on: T-47D breast
TK-10 renal = tested on: TK-10 renal
U251 CNS = tested on: U251 CNS
UACC-257 melanoma = tested on: UACC-257 melanoma
UACC-62 melanoma = tested on: UACC-62 melanoma
UO-31 renal = tested on: UO-31 renal

c1ccc(-c2c(-c3ccccc3)[n+](Cc3ccc4ccccc4c3)c(-c3cccc4ccccc34)n2Cc2ccc3ccccc3c2)cc1
GI50 (786-0 renal): 231 nM
TGI (786-0 renal): 1630 nM
GI50 (A498 renal): < 47.1 nM
TGI (A498 renal): 398 nM
GI50 (A549 NSCLC): 166 nM
TGI (A549 NSCLC): 1570 nM
GI50 (ACHN renal): 249 nM
TGI (ACHN renal): 743 nM
GI50 (BT-549 breast): 122 nM
TGI (BT-549 breast): 1180 nM
GI50 (CAKI-1 renal): 265 nM
TGI (CAKI-1 renal): 1010 nM
GI50 (CCRF-CEM leukemia): 128 nM
TGI (CCRF-CEM leukemia): 1660 nM
GI50 (COLO 205 colon): 76.5 nM
TGI (COLO 205 colon): 228 nM
GI50 (DU-145 prostate): 262 nM
TGI (DU-145 prostate): 1440 nM
GI50 (EKVX NSCLC): 187 nM
TGI (EKVX NSCLC): 1430 nM
GI50 (HCC-2998 colon): 131 nM
TGI (HCC-2998 colon): 1500 nM
GI50 (HCT-116 colon): 92.7 nM
TGI (HCT-116 colon): 1250 nM
GI50 (HCT-15 colon): 327 nM
TGI (HCT-15 colon): 1210 nM
GI50 (HL-60(TB) leukemia): 34.2 nM
TGI (HL-60(TB) leukemia): 228 nM
GI50 (HOP-62 NSCLC): 301 nM
TGI (HOP-62 NSCLC): 1780 nM
GI50 (HOP-92 NSCLC): 79.1 nM
TGI (HOP-92 NSCLC): 479 nM
GI50 (HS 578T breast): 302 nM
TGI (HS 578T breast): 2200 nM
GI50 (HT29 colon): 46.6 nM
TGI (HT29 colon): 1100 nM
GI50 (IGROV1 ovarian): 147 nM
TGI (IGROV1 ovarian): 1390 nM
GI50 (K-562 leukemia): 45.1 nM
TGI (K-562 leukemia): > 100000 nM
GI50 (KM12 colon): 98.7 nM
TGI (KM12 colon): 758 nM
GI50 (LOX IMVI melanoma): 150 nM
TGI (LOX IMVI melanoma): 496 nM
GI50 (M14 melanoma): 187 nM
TGI (M14 melanoma): 1440 nM
GI50 (MALME-3M melanoma): 91 nM
TGI (MALME-3M melanoma): 1000 nM
GI50 (MCF7 breast): 169 nM
TGI (MCF7 breast): 1070 nM
GI50 (MDA-MB-231 breast): 220 nM
TGI (MDA-MB-231 breast): 1000 nM
GI50 (MDA-MB-435): 284 nM
TGI (MDA-MB-435): 1180 nM
GI50 (MOLT-4 leukemia): 233 nM
TGI (MOLT-4 leukemia): 1270 nM
GI50 (NCI-H226 lung): 203 nM
TGI (NCI-H226 lung): 828 nM
GI50 (NCI-H23 lung): 146 nM
TGI (NCI-H23 lung): 748 nM
GI50 (NCI-H460 lung): 154 nM
TGI (NCI-H460 lung): 1140 nM
GI50 (NCI-H522 lung): 253 nM
TGI (NCI-H522 lung): 978 nM
GI50 (NCI/ADR-RES ovarian): 1300 nM
TGI (NCI/ADR-RES ovarian): 2940 nM
GI50 (OVCAR-3 ovarian): 94.5 nM
TGI (OVCAR-3 ovarian): 1280 nM
GI50 (OVCAR-4 ovarian): 187 nM
TGI (OVCAR-4 ovarian): 1120 nM
GI50 (OVCAR-5 ovarian): 321 nM
TGI (OVCAR-5 ovarian): 1350 nM
GI50 (OVCAR-8 ovarian): 153 nM
TGI (OVCAR-8 ovarian): 1540 nM
GI50 (PC-3 prostate): 64.1 nM
TGI (PC-3 prostate): 1210 nM
GI50 (RPMI-8226 leukemia): 32.6 nM
TGI (RPMI-8226 leukemia): 295 nM
GI50 (RXF 393 renal): 220 nM
TGI (RXF 393 renal): 949 nM
GI50 (SF-268 CNS): 220 nM
TGI (SF-268 CNS): 1760 nM
GI50 (SF-295 CNS): 90.6 nM
TGI (SF-295 CNS): 458 nM
GI50 (SF-539 CNS): 371 nM
TGI (SF-539 CNS): 1500 nM
GI50 (SK-MEL-2 melanoma): 140 nM
TGI (SK-MEL-2 melanoma): 758 nM
GI50 (SK-MEL-28 melanoma): 191 nM
TGI (SK-MEL-28 melanoma): 1880 nM
GI50 (SK-MEL-5 melanoma): 155 nM
TGI (SK-MEL-5 melanoma): 296 nM
GI50 (SK-OV-3 ovarian): 207 nM
TGI (SK-OV-3 ovarian): 973 nM
GI50 (SN12C renal): 127 nM
TGI (SN12C renal): 1140 nM
GI50 (SNB-19 CNS): 108 nM
TGI (SNB-19 CNS): 1420 nM
GI50 (SNB-75 CNS): 192 nM
TGI (SNB-75 CNS): 955 nM
GI50 (SR leukemia): 192 nM
TGI (SR leukemia): 1530 nM
GI50 (SW-620 colon): 151 nM
TGI (SW-620 colon): 1330 nM
GI50 (T-47D breast): 64.8 nM
TGI (T-47D breast): 1270 nM
GI50 (TK-10 renal): 239 nM
TGI (TK-10 renal): 1530 nM
GI50 (U251 CNS): 74.7 nM
TGI (U251 CNS): 1460 nM
GI50 (UACC-257 melanoma): 221 nM
TGI (UACC-257 melanoma): 958 nM
GI50 (UACC-62 melanoma): 286 nM
TGI (UACC-62 melanoma): 1400 nM
GI50 (UO-31 renal): 306 nM
TGI (UO-31 renal): 1280 nM

CC(=O)C(C)CCOC1(C)OCCC1C (centres undefined)
TGI (786-0 renal): > 100000 nM
TGI (A498 renal): > 100000 nM
TGI (A549 NSCLC): > 100000 nM
TGI (ACHN renal): > 100000 nM
TGI (BT-549 breast): > 100000 nM
TGI (CAKI-1 renal): > 100000 nM
TGI (CCRF-CEM leukemia): > 100000 nM
TGI (COLO 205 colon): > 100000 nM
TGI (DU-145 prostate): > 100000 nM
TGI (EKVX NSCLC): > 100000 nM
TGI (HCC-2998 colon): > 100000 nM
TGI (HCT-116 colon): > 100000 nM
TGI (HCT-15 colon): > 100000 nM
TGI (HL-60(TB) leukemia): > 100000 nM
TGI (HOP-62 NSCLC): > 100000 nM
TGI (HOP-92 NSCLC): > 100000 nM
TGI (HS 578T breast): > 100000 nM
TGI (HT29 colon): > 100000 nM
TGI (IGROV1 ovarian): > 100000 nM
TGI (K-562 leukemia): > 100000 nM
TGI (KM12 colon): > 100000 nM
TGI (LOX IMVI melanoma): > 100000 nM
TGI (M14 melanoma): > 100000 nM
TGI (MALME-3M melanoma): > 100000 nM
TGI (MCF7 breast): > 100000 nM
TGI (MDA-MB-231 breast): > 100000 nM
TGI (MDA-MB-435): > 100000 nM
TGI (MOLT-4 leukemia): > 100000 nM
TGI (NCI-H226 lung): > 100000 nM
TGI (NCI-H23 lung): > 100000 nM
TGI (NCI-H460 lung): > 100000 nM
TGI (NCI-H522 lung): > 100000 nM
TGI (NCI/ADR-RES ovarian): > 100000 nM
TGI (OVCAR-3 ovarian): > 100000 nM
TGI (OVCAR-4 ovarian): > 100000 nM
TGI (OVCAR-5 ovarian): > 100000 nM
TGI (OVCAR-8 ovarian): > 100000 nM
TGI (PC-3 prostate): > 100000 nM
TGI (RPMI-8226 leukemia): > 100000 nM
TGI (RXF 393 renal): > 100000 nM
TGI (SF-268 CNS): > 100000 nM
TGI (SF-295 CNS): > 100000 nM
TGI (SF-539 CNS): > 100000 nM
TGI (SK-MEL-2 melanoma): > 100000 nM
TGI (SK-MEL-28 melanoma): > 100000 nM
TGI (SK-MEL-5 melanoma): > 100000 nM
TGI (SK-OV-3 ovarian): > 100000 nM
TGI (SN12C renal): > 100000 nM
TGI (SNB-19 CNS): > 100000 nM
TGI (SNB-75 CNS): > 100000 nM
TGI (SR leukemia): > 100000 nM
TGI (SW-620 colon): > 100000 nM
TGI (T-47D breast): > 100000 nM
TGI (TK-10 renal): > 100000 nM
TGI (U251 CNS): > 100000 nM
TGI (UACC-257 melanoma): > 100000 nM
TGI (UACC-62 melanoma): > 100000 nM
TGI (UO-31 renal): > 100000 nM
